Measured values reported in patent US20080176936A1, “Classes of Compounds that Interact with Integrins” (priority 2005, published 2008).

Tests used:
αVβ3 integrin = molecular target: T1, αVβ3 integrin (Homo sapiens, UniProt P05106+P06756); experiment: ELISA: inhibition of binding of αVβ3 integrin (source WM-115 cell line) to coated extracellular matrix protein; details: WM-115 cell line as integrin source
T1 construct: the cell line WM-115 was used as a source of αVβ3 integrin; endogenous in cells; host or cells: WM-115 cell line
In short: (§1)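 Wells were coated with fibrinogen or vitronectin (10 µg/well), and integrin binding was measured by ELISA. αIIbβ3 came from human platelet membranes and αVβ3 from WM-115 cells, each preincubated with compound. Bound integrin was detected with a rabbit anti-β3 antibody, an HRP secondary and a colorimetric readout.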

αllbβ3 integrin = molecular target: T2, αllbβ3 integrin (Homo sapiens, UniProt P05106+P08514); experiment: ELISA: inhibition of binding of αllbβ3 integrin membrane preparation to coated extracellular matrix protein; details: human platelet membrane preparation
T2 construct: Human platelet membrane preparations were used as a source of αllbβ3 integrin; from tissue; host or cells: human platelets (membrane preparation)
In short: as §1

T2 sequence (P08514 32-887 limits assumed): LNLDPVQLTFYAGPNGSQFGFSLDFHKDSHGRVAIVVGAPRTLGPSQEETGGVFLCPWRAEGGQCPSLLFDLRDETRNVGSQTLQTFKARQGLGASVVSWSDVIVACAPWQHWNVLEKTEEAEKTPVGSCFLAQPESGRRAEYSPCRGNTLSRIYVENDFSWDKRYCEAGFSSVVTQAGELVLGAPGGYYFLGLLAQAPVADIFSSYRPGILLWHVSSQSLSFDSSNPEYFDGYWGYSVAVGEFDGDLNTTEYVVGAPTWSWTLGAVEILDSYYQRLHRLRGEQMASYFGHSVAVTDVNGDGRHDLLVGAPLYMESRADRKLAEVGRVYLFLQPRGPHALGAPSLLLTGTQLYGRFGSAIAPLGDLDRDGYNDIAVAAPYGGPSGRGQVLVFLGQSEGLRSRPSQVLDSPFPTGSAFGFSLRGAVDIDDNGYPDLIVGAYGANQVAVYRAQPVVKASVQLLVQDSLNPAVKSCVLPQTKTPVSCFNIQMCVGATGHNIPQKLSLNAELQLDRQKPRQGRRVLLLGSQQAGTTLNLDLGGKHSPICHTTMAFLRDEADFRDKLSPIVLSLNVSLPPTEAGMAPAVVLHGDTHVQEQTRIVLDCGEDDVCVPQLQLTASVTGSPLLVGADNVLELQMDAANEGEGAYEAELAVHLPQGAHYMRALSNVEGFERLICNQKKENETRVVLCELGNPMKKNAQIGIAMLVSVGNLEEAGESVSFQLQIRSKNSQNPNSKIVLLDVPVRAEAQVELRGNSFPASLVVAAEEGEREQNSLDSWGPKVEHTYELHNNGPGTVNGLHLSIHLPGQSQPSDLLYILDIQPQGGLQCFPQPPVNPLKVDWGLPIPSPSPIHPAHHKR
T2 sequence (P08514 891-1039 partner limits assumed): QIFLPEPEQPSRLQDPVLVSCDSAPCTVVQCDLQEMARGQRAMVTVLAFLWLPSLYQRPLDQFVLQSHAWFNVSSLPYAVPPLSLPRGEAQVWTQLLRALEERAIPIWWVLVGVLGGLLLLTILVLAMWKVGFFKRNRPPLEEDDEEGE
T2 sequence (P05106 27-788): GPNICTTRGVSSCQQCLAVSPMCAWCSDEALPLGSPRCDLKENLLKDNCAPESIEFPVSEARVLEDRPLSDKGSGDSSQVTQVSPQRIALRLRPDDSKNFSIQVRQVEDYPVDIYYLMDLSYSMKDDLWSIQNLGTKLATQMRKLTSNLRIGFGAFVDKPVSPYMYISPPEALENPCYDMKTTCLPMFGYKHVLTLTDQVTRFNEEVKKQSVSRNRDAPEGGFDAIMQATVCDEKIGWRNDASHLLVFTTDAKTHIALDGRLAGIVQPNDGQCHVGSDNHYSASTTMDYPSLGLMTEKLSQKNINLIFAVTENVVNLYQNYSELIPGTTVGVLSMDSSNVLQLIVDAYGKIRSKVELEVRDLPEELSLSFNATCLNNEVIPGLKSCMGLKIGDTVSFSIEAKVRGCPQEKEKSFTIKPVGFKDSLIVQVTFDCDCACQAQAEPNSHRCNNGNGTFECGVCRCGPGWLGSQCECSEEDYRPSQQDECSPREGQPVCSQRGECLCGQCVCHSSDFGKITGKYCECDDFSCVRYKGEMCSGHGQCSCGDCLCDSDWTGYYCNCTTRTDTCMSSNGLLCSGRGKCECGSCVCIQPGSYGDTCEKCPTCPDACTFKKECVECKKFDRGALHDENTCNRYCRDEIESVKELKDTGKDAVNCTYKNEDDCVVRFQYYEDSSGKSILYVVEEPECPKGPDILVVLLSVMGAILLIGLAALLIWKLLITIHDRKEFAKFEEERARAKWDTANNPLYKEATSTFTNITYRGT
T1 sequence (P06756 31-889 limits assumed): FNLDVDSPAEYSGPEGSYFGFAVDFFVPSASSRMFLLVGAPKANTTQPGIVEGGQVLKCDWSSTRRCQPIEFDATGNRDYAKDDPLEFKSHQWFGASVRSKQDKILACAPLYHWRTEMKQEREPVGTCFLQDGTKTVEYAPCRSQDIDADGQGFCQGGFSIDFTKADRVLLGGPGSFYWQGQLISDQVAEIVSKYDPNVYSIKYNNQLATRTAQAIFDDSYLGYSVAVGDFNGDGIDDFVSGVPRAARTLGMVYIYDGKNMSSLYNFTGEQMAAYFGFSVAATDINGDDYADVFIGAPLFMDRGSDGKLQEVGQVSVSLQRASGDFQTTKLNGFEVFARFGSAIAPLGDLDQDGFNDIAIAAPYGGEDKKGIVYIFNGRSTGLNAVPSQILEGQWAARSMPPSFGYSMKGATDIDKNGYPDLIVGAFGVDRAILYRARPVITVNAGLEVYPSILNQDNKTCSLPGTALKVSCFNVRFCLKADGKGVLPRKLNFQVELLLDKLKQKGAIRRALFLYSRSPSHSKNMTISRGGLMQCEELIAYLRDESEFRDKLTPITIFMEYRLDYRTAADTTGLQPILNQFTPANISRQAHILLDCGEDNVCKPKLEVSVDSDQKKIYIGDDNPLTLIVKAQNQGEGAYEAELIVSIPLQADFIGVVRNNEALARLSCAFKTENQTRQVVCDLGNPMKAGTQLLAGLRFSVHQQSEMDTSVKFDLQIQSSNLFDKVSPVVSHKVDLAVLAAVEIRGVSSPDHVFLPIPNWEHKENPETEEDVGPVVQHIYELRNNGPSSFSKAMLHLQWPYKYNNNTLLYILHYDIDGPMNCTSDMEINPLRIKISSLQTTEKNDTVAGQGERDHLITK
T1 sequence (P06756 891-1048 partner limits assumed): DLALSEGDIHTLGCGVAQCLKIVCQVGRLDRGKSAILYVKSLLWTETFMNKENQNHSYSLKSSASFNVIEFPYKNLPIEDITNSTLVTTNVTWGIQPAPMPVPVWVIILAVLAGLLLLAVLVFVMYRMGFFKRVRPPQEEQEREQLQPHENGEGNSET
T1 sequence (P05106 27-788): as the sequence (P05106 27-788) above

With CCOCC1OC(OCc2ccccc2)C(NC(=O)c2ccc(C(=O)O)cc2)C(OCc2cccc(N)c2)C1O (single isomer, unassigned) [Compound 107] the “INHIBITION 250 uM RECEPTOR aVb3 SUBSTRATE FIBRINOGEN” value (αVβ3 integrin) was “− (0% to 35% inhibition at 250 micromolar)”, the “INHIBITION @ 250 uM RECEPTOR allBb3 SUBSTRATE FIBRINOGEN” value (αllbβ3 integrin) was “− (0% to 35% inhibition at 250 micromolar)” and the “INHIBITION 250 uM RECEPTOR allBb3 SUBSTRATE VITRONECTIN” value (αllbβ3 integrin) was “+++ (81% to 100% inhibition at 250 micromolar)”.

For CCOCC1OC(OCc2ccccc2)C(NC(=O)c2ccc(C(=O)O)cc2)C(OCc2cccc(N)c2)C1O (single isomer, unassigned) [Compound 108], the “INHIBITION 250 uM RECEPTOR aVb3 SUBSTRATE FIBRINOGEN” value (αVβ3 integrin) was “− (0% to 35% inhibition at 250 micromolar)”, the “INHIBITION @ 250 uM RECEPTOR allBb3 SUBSTRATE FIBRINOGEN” value (αllbβ3 integrin) was “− (0% to 35% inhibition at 250 micromolar)” and the “INHIBITION 250 uM RECEPTOR allBb3 SUBSTRATE VITRONECTIN” value (αllbβ3 integrin) was “+++ (81% to 100% inhibition at 250 micromolar)”.

For Nc1cccc(COC2C(O)C(CO)OC(OCc3ccccc3)C2NC(=O)c2ccc(C(=O)O)cc2)c1 (single isomer, unassigned) [Compound 109], the “INHIBITION 250 uM RECEPTOR aVb3 SUBSTRATE FIBRINOGEN” value (αVβ3 integrin) was “− (0% to 35% inhibition at 250 micromolar)”, the “INHIBITION @ 250 uM RECEPTOR allBb3 SUBSTRATE FIBRINOGEN” value (αllbβ3 integrin) was “− (0% to 35% inhibition at 250 micromolar)” and the “INHIBITION 250 uM RECEPTOR allBb3 SUBSTRATE VITRONECTIN” value (αllbβ3 integrin) was “+++ (81% to 100% inhibition at 250 micromolar)”.

For CCC(=O)NC1C(OCc2ccccc2)OC(COCC(=O)O)C(O)C1OCc1cccc(N)c1 (single isomer, unassigned) [Compound 110], the “INHIBITION 250 uM RECEPTOR aVb3 SUBSTRATE FIBRINOGEN” value (αVβ3 integrin) was “− (0% to 35% inhibition at 250 micromolar)”, the “INHIBITION @ 250 uM RECEPTOR allBb3 SUBSTRATE FIBRINOGEN” value (αllbβ3 integrin) was “− (0% to 35% inhibition at 250 micromolar)” and the “INHIBITION 250 uM RECEPTOR allBb3 SUBSTRATE VITRONECTIN” value (αllbβ3 integrin) was “+++ (81% to 100% inhibition at 250 micromolar)”.

In the case of CCC(=O)NC1C(OCc2ccccc2)OC(COCc2ccc(C(=O)O)cc2)C(O)C1OCc1cccc(N)c1 (single isomer, unassigned) [Compound 111], the “INHIBITION 250 uM RECEPTOR aVb3 SUBSTRATE FIBRINOGEN” value (αVβ3 integrin) is reported as “− (0% to 35% inhibition at 250 micromolar)”, the “INHIBITION @ 250 uM RECEPTOR allBb3 SUBSTRATE FIBRINOGEN” value (αllbβ3 integrin) is reported as “− (0% to 35% inhibition at 250 micromolar)” and the “INHIBITION 250 uM RECEPTOR allBb3 SUBSTRATE VITRONECTIN” value (αllbβ3 integrin) is reported as “+++ (81% to 100% inhibition at 250 micromolar)”.

With CCC(=O)NC1C(OCc2ccccc2)OC(COCc2ccc(C(=O)O)cc2)C(O)C1OCc1cccc(N)c1 (single isomer, unassigned) [Compound 112] the “INHIBITION 250 uM RECEPTOR aVb3 SUBSTRATE FIBRINOGEN” value (αVβ3 integrin) was “+++ (81% to 100% inhibition at 250 micromolar)”, the “INHIBITION @ 250 uM RECEPTOR allBb3 SUBSTRATE FIBRINOGEN” value (αllbβ3 integrin) was “− (0% to 35% inhibition at 250 micromolar)” and the “INHIBITION 250 uM RECEPTOR allBb3 SUBSTRATE VITRONECTIN” value (αllbβ3 integrin) was “+++ (81% to 100% inhibition at 250 micromolar)”.

With CC(=O)NC1C(OCCNC(=N)N)OC(COCC(=O)O)C(O)C1OCc1ccccc1 (single isomer, unassigned) [Compound 113] the “INHIBITION 250 uM RECEPTOR aVb3 SUBSTRATE FIBRINOGEN” value (αVβ3 integrin) was “+++ (81% to 100% inhibition at 250 micromolar)”, the “INHIBITION @ 250 uM RECEPTOR allBb3 SUBSTRATE FIBRINOGEN” value (αllbβ3 integrin) was “+ (36% to 60% inhibition at 250 micromolar)” and the “INHIBITION 250 uM RECEPTOR allBb3 SUBSTRATE VITRONECTIN” value (αllbβ3 integrin) was “+++ (81% to 100% inhibition at 250 micromolar)”.

For COCC1OC(OCCNC(=N)N)C(NC(=O)c2ccccc2)C(OCc2ccc(C(=O)O)cc2)C1O (single isomer, unassigned) [Compound 114], the “INHIBITION 250 uM RECEPTOR aVb3 SUBSTRATE FIBRINOGEN” value (αVβ3 integrin) was “− (0% to 35% inhibition at 250 micromolar)”, the “INHIBITION @ 250 uM RECEPTOR allBb3 SUBSTRATE FIBRINOGEN” value (αllbβ3 integrin) was “− (0% to 35% inhibition at 250 micromolar)” and the “INHIBITION 250 uM RECEPTOR allBb3 SUBSTRATE VITRONECTIN” value (αllbβ3 integrin) was “++ (61% to 80% inhibition at 250 micromolar)”.

In the case of COCC1OC(OCCNC(=N)N)C(NC(=O)c2ccccc2)C(OCc2ccc(C(=O)O)cc2)C1O (single isomer, unassigned) [Compound 115], the “INHIBITION 250 uM RECEPTOR aVb3 SUBSTRATE FIBRINOGEN” value (αVβ3 integrin) is reported as “− (0% to 35% inhibition at 250 micromolar)”, the “INHIBITION @ 250 uM RECEPTOR allBb3 SUBSTRATE FIBRINOGEN” value (αllbβ3 integrin) is reported as “− (0% to 35% inhibition at 250 micromolar)” and the “INHIBITION 250 uM RECEPTOR allBb3 SUBSTRATE VITRONECTIN” value (αllbβ3 integrin) is reported as “− (0% to 35% inhibition at 250 micromolar)”.

CCOC1OC(COCC(=O)O)C(O)C(OCc2ccccc2)C1NC(=O)CN (single isomer, unassigned) [Compound 116] was tested, and the “INHIBITION 250 uM RECEPTOR aVb3 SUBSTRATE FIBRINOGEN” value (αVβ3 integrin) was “− (0% to 35% inhibition at 250 micromolar)”, the “INHIBITION @ 250 uM RECEPTOR allBb3 SUBSTRATE FIBRINOGEN” value (αllbβ3 integrin) was “− (0% to 35% inhibition at 250 micromolar)” and the “INHIBITION 250 uM RECEPTOR allBb3 SUBSTRATE VITRONECTIN” value (αllbβ3 integrin) was “− (0% to 35% inhibition at 250 micromolar)”.

In the case of CCOC1OC(COCC(=O)O)C(O)C(OCc2ccccc2)C1NC(=O)CN (single isomer, unassigned) [Compound 117], the “INHIBITION 250 uM RECEPTOR aVb3 SUBSTRATE FIBRINOGEN” value (αVβ3 integrin) is reported as “− (0% to 35% inhibition at 250 micromolar)”, the “INHIBITION @ 250 uM RECEPTOR allBb3 SUBSTRATE FIBRINOGEN” value (αllbβ3 integrin) is reported as “+ (36% to 60% inhibition at 250 micromolar)” and the “INHIBITION 250 uM RECEPTOR allBb3 SUBSTRATE VITRONECTIN” value (αllbβ3 integrin) is reported as “+++ (81% to 100% inhibition at 250 micromolar)”.

With CCOC1OC(COCC(=O)O)C(O)C(OCc2ccccc2)C1NC(=O)CNC(=N)N (single isomer, unassigned) [Compound 118] the “INHIBITION 250 uM RECEPTOR aVb3 SUBSTRATE FIBRINOGEN” value (αVβ3 integrin) was “− (0% to 35% inhibition at 250 micromolar)”, the “INHIBITION @ 250 uM RECEPTOR allBb3 SUBSTRATE FIBRINOGEN” value (αllbβ3 integrin) was “− (0% to 35% inhibition at 250 micromolar)” and the “INHIBITION 250 uM RECEPTOR allBb3 SUBSTRATE VITRONECTIN” value (αllbβ3 integrin) was “+++ (81% to 100% inhibition at 250 micromolar)”.
